Measurements reported in PubChem BioAssay (NCI).
Several values for one entry are separate records, joined by “and”; a condition that tells them apart may be missing. Equal values may be shown once.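 Tested at 5 concentrations; 48 h exposure; 96-well plates; endpoints linearly interpolated, else capped at highest concentration. Here, GI50 denotes the concentration required for 50% inhibition of growth. TGI denotes the concentration required for complete inhibition of growth.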

Key:
Experiment in all cases: DTP human tumour cell line panel, 48 h
NCI-H23 lung = tested on: NCI-H23 lung
SF-295 CNS = tested on: SF-295 CNS
SK-MEL-5 melanoma = tested on: SK-MEL-5 melanoma
SW-620 colon = tested on: SW-620 colon
OVCAR-5 ovarian = tested on: OVCAR-5 ovarian
HL-60(TB) leukemia = tested on: HL-60(TB) leukemia
CCRF-CEM leukemia = tested on: CCRF-CEM leukemia
UACC-62 melanoma = tested on: UACC-62 melanoma

Row | Compound | TGI (NCI-H23 lung) [µM] | TGI (SF-295 CNS) [µM] | TGI (SK-MEL-5 melanoma) [µM] | TGI (SW-620 colon) [µM] | TGI (OVCAR-5 ovarian) [µM] | TGI (HL-60(TB) leukemia) | TGI (CCRF-CEM leukemia) [µM] | TGI (UACC-62 melanoma) [µM] | GI50 (NCI-H23 lung) [µM] | GI50 (SF-295 CNS) [µM] | GI50 (SK-MEL-5 melanoma) [µM] | GI50 (SW-620 colon) [µM] | GI50 (OVCAR-5 ovarian) [µM] | GI50 (HL-60(TB) leukemia) [µM] | GI50 (CCRF-CEM leukemia) [µM] | GI50 (UACC-62 melanoma) [µM]
1 | C[C@H]1CC[C@@H]2[C@@H](C)[C@H]3[C@H](C[C@H]4[C@@H]5CC=C6C[C@@H](O)CC[C@]6(C)[C@H]5CC[C@]34C)N2C1 | > 100 | > 100 | > 100 | > 100 | > 100 | 54 µM | > 100 | > 100 |  |  |  |  |  |  |  | 
2 | COc1ccc2c(c1)[nH]c1c3ccc(OC)cc3oc(=O)c21 | > 100 | > 100 | > 100 | > 100 | > 100 | > 100 µM | > 100 | > 100 |  |  |  |  |  |  |  | 
3 | CN(C)CCOc1ccc2c(c1)C(=O)/C(=C\c1ncc([N+](=O)[O-])n1C)C2 | 1.3 | 1.47 | 0.402 | 4.22 | 5.7 | 1.09 µM | > 100 | 2.49 | 0.258 | 0.46 | 0.179 | 0.474 | 2.02 | 0.235 | 1.39 | 0.851
4 | CCCC(=O)OC(OC(=O)CCC)c1ccc([N+](=O)[O-])o1 | 48.8 | > 100 | > 100 | 41.2 | 39.6 | 88.3 µM | > 100 | 49.1 |  |  |  |  |  |  |  | 
5 | CC1=C(SCCC(=O)OC(C[Se]C2=C(C)C(=O)c3ccccc3C2=O)C(=O)NC(C)(C)C)C(=O)c2ccccc2C1=O (stereo unspecified) | 2.69 | 1.21 | 2.86 | 2.87 | 3.08 | 2.39 µM | 1.2 | 2.83 | 1.13 | 0.315 | 1.52 | 1.36 | 1.69 | 0.68 | 0.306 | 1.48
6 | O=C1C=CC(=O)c2c(O)c(N(CCCl)CCCl)c(Cl)c(O)c21 | > 8.05 | > 10 | 7.41 | 6.56 | > 9.1 | > 10 µM | > 7.38 | > 7.71 |  |  |  |  |  |  |  | 
7 | CCOC(=O)Cc1cc(=O)[nH]c(-n2[nH]c(C)c(CCO)c2=O)n1 | > 100 | > 100 | > 100 | > 100 | > 100 | > 100 µM | > 100 | > 100 |  |  |  |  |  |  |  | 
8 | CN(C)Cc1cc(C(C)(C)C)cc(CN(C)C)c1O | > 100 | > 100 | > 100 | > 100 | > 100 |  | > 100 | > 100 |  |  |  |  |  |  |  | 
9 | C1CC[N-]CC1.CC(=N\O)/C(C)=N/O.CC(=N\O)/C(C)=N/O.C[CH-]C(C)O.[Co+2] |  | > 100 | 43.1 | 66.8 | > 100 | 45.7 µM |  | 29 |  | 88.5 | 20.1 | 23.5 | 35.1 | 14.5 |  | 15.6
10 | C[C@@H](C[C@H](CCO)c1ccccc1)c1ccc2ccccc2c1 | 3.38 | 3.19 | 2.91 | 3.14 | 3.04 | 4 µM | 1.51 | 2.86 | 1.6 | 1.72 | 1.57 | 1.63 | 1.57 | 1.91 | 0.364 | 1.42
11 | Cc1c2ccccc2c(C)n2c1nc1cc(Cl)c(Cl)cc12 | > 100 | > 100 | > 100 | > 100 | > 100 | 9.71 µM and 77.1 µM | > 100 | > 100 | > 100 | > 100 | 25.7 | 74.1 | > 100 | 17.5 | 43.9 | 45.2
12 | C=C1C(=O)OC2(C)CCC1CC1OC1(C)CCC=C(C)CCC2O (stereo unspecified) | > 100 | > 100 | > 100 | > 100 | > 100 | > 100 µM | > 100 | > 100 |  |  |  |  |  |  |  | 
13 | Cc1nc2sc(C(=O)Nc3ccccc3)c(N)c2cc1C(=O)c1ccccc1 | > 50 | > 50 | 8.13 | > 50 | > 50 | 38.1 µM | > 50 | > 50 | 3.99 | 1.83 | 1.97 | 2.29 | 2.9 | 0.0138 | 1.69 | 2.12
14 | CNc1nc(-c2ccc3c(N)n[nH]c3c2)cc(N2C[C@@H](C(=O)NC3CCCCC3)CC[C@H]2C)n1 | 20.1 | 15.8 | 13.9 | 23.4 | 16.8 | 18.5 µM | > 48.1 | 16.3 | 3.69 | 2.61 | 2.84 | 6.85 | 3.43 | 2.68 | 1.78 | 0.858
15 | COc1cc2c(=O)n(CC3CCCCC3)c3c4cc[nH]c4ncc3c2cc1OC | > 50 | 10.7 | 25.9 | 14.6 | 24.2 | > 50 µM | > 50 | > 50 | 6.66 | 2.18 | 4.37 | 2 | 1.74 | 12.8 | 2.54 | 6.01
16 | COc1ccc(C2C3=C(COC3=O)N(CCO)c3cc4c(cc32)CCC4)cc1 (stereo unspecified) | > 50 | 6.7 | > 50 | > 50 | > 50 | 3.98 µM | > 50 | > 50 | 7.05 | 1.49 | 2.38 | 2.17 | > 50 | 1.18 | 3.98 | 2.65
17 | COC(=O)[C@@H](C)C[C@H](Cc1ccccc1)NC(=O)c1csc([C@@H](C[C@H](C(C)C)N(C)C(=O)[C@@H](NC(=O)[C@H]2CCCCN2C)C(C(F)(F)F)C(F)(F)F)OC(C)=O)n1 | > 16.7 | > 16.7 | 1.81 | > 16.7 | > 16.7 | 0.115 µM | 9.05 | > 16.7 | 0.0624 | 0.0368 | 0.0275 | 0.0673 | 0.0643 | 0.0134 | 0.0539 | 0.0154
18 | Cn1cccc1-c1cc(-c2ccccc2)nc(N)c1C#N | > 100 | > 100 | > 100 | > 100 | > 100 | > 100 µM |  | > 100 | > 100 | > 86.3 | 98.7 | > 100 | > 100 | 0.761 |  | 34.5
19 | N#Cc1cc2c(cc1Cl)SC(=Nc1ccccc1)N(S(=O)(=O)c1ccc(Br)s1)S2(=O)=O | 38 | 89.5 | 30.3 | 40 | 39.2 |  | 45 | 36.3 | 19.3 | 30.4 | 16 | 18.9 | 19.7 |  | 21.8 | 20.8
20 | O=C(N/N=C/c1ccc(N(CCCl)CCCl)cc1)c1ccc(C(=O)N/N=C/c2ccc(N(CCCl)CCCl)cc2)cc1 |  | > 100 | > 100 | > 100 | > 100 | > 100 µM | > 100 |  |  | 0.213 | 18.1 | 19.5 | 71.5 |  | 0.0349 | 
21 | O=[N+]([O-])c1ccc2nc(-c3ccc(Cl)cc3)[nH]c2c1 | > 100 | 42.7 | 29.7 | > 100 |  |  |  | 42 |  |  |  |  |  |  |  | 
22 | CC(=O)OC1=C(CC(C)(C)C)C(=O)c2ccccc2C1=O | 38.8 | 70.4 | 51.3 | > 100 |  | 44.5 µM | 55.6 | > 100 |  |  |  |  |  |  |  | 
23 | CC(=O)/C(=C/N1CCN(C(=O)c2ccco2)C1=S)C(=O)c1ccccc1 |  | > 50 | 15.4 | 17 |  | 19.3 µM |  | 16.9 |  | 19.3 | 8.12 | 6.12 |  | 8.19 |  | 7.33
24 | C[C@@H]1Cc2c(ccc3[nH]ncc23)[C@@H](c2ccc(NC3CN(CCCF)C3)cn2)N1CC(F)(F)F |  | 36.9 | 28.2 | 34.3 | > 100 | 43.4 µM | 67.3 | 30.5 |  | 18 | 14.3 | 17.5 | 26.4 | 15.7 | 21.1 | 15.2
25 | Cc1c(C2CCSc3ccccc3N2)sc2ccccc12 (stereo unspecified) | > 100 | > 100 | > 100 | > 100 |  | > 100 µM |  | > 100 |  |  |  |  |  |  |  | 
26 | C=C(CN1CCN(c2ccc(F)c(Cl)c2)CC1)c1ccc(C(=O)Nc2ccccc2N)cc1 | 29.7 | > 100 | 22.3 | > 100 | > 100 | 4.31 µM |  | 54.3 | 5.27 | 6.95 | 5.62 | 5.37 | 15.1 | 1.64 |  | 5.24
